Measurements: patent publication US20240270701A1, “BETA ADRENERGIC AGONIST AND METHODS OF USING THE SAME” (Curasen Therapeutics, Inc., priority 2021, published 2024)
Where two headings read alike, the source gives them in different places.

Assays:
[1] = target: T1, B1-AR (Homo sapiens, UniProt P08588); assay: cAMP Gs dynamic HTRF assay, cells expressing beta-adrenergic receptor (CHO-K1), B1-AR; assay type: cell-based; conditions: for EC50: cAMP HTRF, read-out: pEC50 [B1-AR] (converted); for Emax: relative to full agonist isoproterenol, read-out: Emax (% iso) (%) [B1-AR]
T1 construct: expressed in transfected cells; host or cells: CHO-K1
T1 sequence (P08588 whole entry, species assumed): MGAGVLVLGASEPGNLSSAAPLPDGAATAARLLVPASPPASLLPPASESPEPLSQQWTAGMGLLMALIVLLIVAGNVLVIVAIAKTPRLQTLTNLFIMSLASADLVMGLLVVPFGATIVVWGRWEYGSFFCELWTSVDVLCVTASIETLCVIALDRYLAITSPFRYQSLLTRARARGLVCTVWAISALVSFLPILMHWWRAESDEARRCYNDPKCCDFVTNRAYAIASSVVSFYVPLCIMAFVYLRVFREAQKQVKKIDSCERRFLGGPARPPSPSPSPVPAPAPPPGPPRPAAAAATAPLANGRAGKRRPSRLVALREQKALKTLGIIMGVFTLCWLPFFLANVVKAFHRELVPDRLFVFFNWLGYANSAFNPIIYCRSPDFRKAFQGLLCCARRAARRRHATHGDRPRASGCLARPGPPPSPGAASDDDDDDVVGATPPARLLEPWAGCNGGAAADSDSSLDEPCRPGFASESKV
Method: (§1) cAMP homogeneous time-resolved fluorescence (HTRF): experimental methods. Compound efficacy is determined using the cAMP Gs dynamic HTRF assay (Cisbio, catalog #62AM4PEC) largely following the manufacturer's instructions, also detailed below.
(§2) Standard serial dilution curves are 10-point, 5-fold dilutions starting from a highest concentration of 10 μM. Controls present on every assay plate are 0.1% DMSO (vehicle control), 1 μM isoproterenol (full beta-adrenergic agonist control) and […] xamoterol (partial beta-adrenergic agonist control). […] Assay plates are centrifuged at 500×g for 10 seconds. Compounds and IBMX are prepared at 2× final dose to compensate for addition of cells.
(§3) Cell preparation: 1× stimulation buffer, washing PBS (Dulbecco's phosphate-buffered saline, − Mg − Ca; Caisson Labs, catalog #PBL01), assay PBS (Dulbecco's phosphate-buffered saline, + Mg, + Ca; Caisson Labs, catalog #PBL02) and Versene (0.02% EDTA disodium salt solution in PBS without calcium or magnesium; Caisson Labs, catalog #EDL01) are pre-warmed to 37° C. Cells expressing beta-adrenergic receptor were washed in washing PBS to remove growth medium and then released from the surface by incubating with Versene for 5-10 minutes at 37° C. Cells are harvested using assay PBS, counted manually by hemocytometer or by an automated cell counter, pelleted by centrifugation (200×g, 5 minutes) and resuspended in 37° C. 1× stimulation buffer to a final density of 1.5×10^6 cells/mL. 5 μL of the suspended cell solution (7500 cell total) are added to all wells of the 384 well assay plate, the assay plate was covered with an Axygen® plate seal (Corning PCR-SP) and incubated in a humidified 37° C. environment supplemented with 5% CO2 for 30 minutes.
(§4) HTRF reagent addition, reading and data analysis: After 30 minutes of cell stimulation with test compound, the assay plates are centrifuged at 500×g for 10 seconds, and incubation was stopped with the addition of 5 μL cAMP-D2 acceptor, diluted 1:21 in detection and lysis buffer 2 (Cisbio 62CL2FDF) was added to all cells. Subsequently, 5 μL Anti-cAMP-Eu Donor, diluted 1:21 in detection and lysis buffer 2, was added to cells. Plates were sealed and reactions gently ‘vortexed’ at 900 rpm on a Heidolph Titramax 1000 for at least 30 minutes at room temperature. Plates are centrifuged again at 500×g for 10 seconds, and HTRF was measured using a Tecan Spark plate reader at 50 flashes per well. […] Potency estimates (EC50 and pEC50) are derived from the four-parameter nonlinear regression of the concentration-effect curve and an estimate of relative efficacy is determined by comparing the magnitude of the test compound HTRF signal window (min−max dose) with the signal window of the full agonist control, isoproterenol.

[2] = target: T2, B2-AR (Homo sapiens, UniProt P07550); assay: cAMP Gs dynamic HTRF assay, cells expressing beta-adrenergic receptor (CHO-K1), B2-AR; assay type: cell-based; conditions: for EC50: cAMP HTRF, read-out: pEC50 [B2-AR] (converted); for Emax: relative to full agonist isoproterenol, read-out: Emax (% iso) (%) [B2-AR]
T2 construct: expressed in transfected cells; host or cells: CHO-K1
T2 sequence (P07550 whole entry, species assumed): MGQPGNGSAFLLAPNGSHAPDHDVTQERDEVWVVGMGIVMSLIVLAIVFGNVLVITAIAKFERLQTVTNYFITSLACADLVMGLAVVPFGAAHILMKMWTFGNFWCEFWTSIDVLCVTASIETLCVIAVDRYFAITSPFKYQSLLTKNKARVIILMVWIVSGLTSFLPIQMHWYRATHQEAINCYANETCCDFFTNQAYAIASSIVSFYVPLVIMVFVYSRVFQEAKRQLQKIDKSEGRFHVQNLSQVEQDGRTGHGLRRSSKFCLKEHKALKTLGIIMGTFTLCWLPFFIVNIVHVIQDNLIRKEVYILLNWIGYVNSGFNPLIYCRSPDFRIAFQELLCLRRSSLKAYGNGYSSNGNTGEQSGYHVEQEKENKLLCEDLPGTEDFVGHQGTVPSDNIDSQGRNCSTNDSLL
Method: as §1, §2, §3, §4

Question: `CC(C)NC[C@H](O)c1cc(C#N)cc2[nH]ncc12` [I-161] was tested. Which EC50 [1] did it give?
Answer: 10 to 100 nM

Question: What about the Emax [1] of the same molecule?
Answer: > 90%

Question: And the EC50 ([2]; CHO-K1 cells)?
Answer: 10 to 100 nM

Question: What about the Emax ([2]; CHO-K1 cells) of the same molecule?
Answer: > 90%

Question: How did the EC50 [1] turn out when `Cc1nc(N)ccc1[C@@H](O)CNC1(C)CCC1` [I-154] was run?
Answer: 100 to 1000 nM

Question: What about the Emax [1] of the same molecule?
Answer: > 90%

Question: And the Emax ([2]; CHO-K1, CHO-K1 cells)?
Answer: > 90%

Question: What about the EC50 ([2]; CHO-K1 cells) of the same molecule?
Answer: < 10 nM

Question: Which results are given for `C[C@@H](NC[C@H](O)c1cccc2[nH]ncc12)C1CC1` [I-13]?
Answer: EC50 [1]: < 10 nM; Emax [1]: > 90%; Emax ([2]; CHO-K1, CHO-K1 cells): > 90%; EC50 ([2]; CHO-K1 cells): < 10 nM

Question: Which results are given for `CC[C@H](C)NC[C@H](O)c1cccc2[nH]nc(F)c12` [I-35]?
Answer: EC50 [1]: < 10 nM; Emax [1]: 70 to 90%; EC50 ([2]; CHO-K1 cells): < 10 nM; Emax ([2]; CHO-K1 cells): 70 to 90%

Question: With `Cc1cc([C@@H](O)CNC(C)(C)C)cc2cccnc12` [I-71] as the molecule, how does the EC50 [1] read?
Answer: 100 to 1000 nM

Question: And the Emax [1]?
Answer: 50 to 70%

Question: And the EC50 ([2]; CHO-K1 cells)?
Answer: 10 to 100 nM

Question: What about the Emax ([2]; CHO-K1 cells) of the same molecule?
Answer: < 50%

Question: Which EC50 [1] does the source give for `CCC(C)(C)NC[C@H](O)c1cc(F)cc2[nH]ncc12` [I-51] here?
Answer: < 10 nM

Question: What about the Emax [1] of the same molecule?
Answer: 70 to 90%

Question: What about the EC50 ([2]; CHO-K1 cells) of the same molecule?
Answer: < 10 nM

Question: And the Emax ([2]; CHO-K1 cells)?
Answer: > 90%

Question: `C[C@@H](NC[C@H](O)c1cccc2[nH]ncc12)C(C)(C)C` [I-9] was tested. Which EC50 [1] did it give?
Answer: 10 to 100 nM

Question: What about the Emax [1] of the same molecule?
Answer: > 90%

Question: And the Emax ([2]; CHO-K1, CHO-K1 cells)?
Answer: > 90%

Question: What about the EC50 ([2]; CHO-K1 cells) of the same molecule?
Answer: < 10 nM

Question: Which results are given for `C[C@H](NC[C@H](O)c1cccc2c1C(F)(F)C(=O)N2)C(C)(C)C` [I-2]?
Answer: EC50 [1]: > 1000 nM; Emax [1]: 50 to 70%; EC50 ([2]; CHO-K1 cells): 10 to 100 nM; Emax ([2]; CHO-K1 cells): > 90%

Question: `CCC(C)(CC)NC[C@H](O)c1ccc(F)c2[nH]ncc12` [I-28] was tested. Which EC50 [1] did it give?
Answer: < 10 nM

Question: And the Emax [1]?
Answer: > 90%

Question: What about the Emax ([2]; CHO-K1, CHO-K1 cells) of the same molecule?
Answer: > 90%

Question: What about the EC50 ([2]; CHO-K1 cells) of the same molecule?
Answer: < 10 nM

Question: `CCC(C)(C)NC[C@H](O)c1cccc2[nH]nc(F)c12` [I-48] was tested. Which EC50 [1] did it give?
Answer: < 10 nM

Question: What about the Emax [1] of the same molecule?
Answer: > 90%

Question: What about the Emax ([2]; CHO-K1, CHO-K1 cells) of the same molecule?
Answer: > 90%

Question: What about the EC50 ([2]; CHO-K1 cells) of the same molecule?
Answer: < 10 nM

Question: `Cc1ccnc2ccc([C@@H](O)CNC(C)(C)C)cc12` [I-72] was tested. Which EC50 [1] did it give?
Answer: 100 to 1000 nM

Question: What about the Emax [1] of the same molecule?
Answer: 50 to 70%

Question: And the Emax ([2]; CHO-K1, CHO-K1 cells)?
Answer: < 50%

Question: What about the EC50 ([2]; CHO-K1 cells) of the same molecule?
Answer: 10 to 100 nM

Question: What does the source list for `CC(C)NC[C@H](O)c1cccc2[nH]nc(F)c12` [I-139]?
Answer: EC50 [1]: < 10 nM; Emax [1]: > 90%; EC50 ([2]; CHO-K1 cells): < 10 nM; Emax ([2]; CHO-K1 cells): > 90%

Question: What does the source list for `CC1(NC[C@H](O)c2cccc3[nH]nc(F)c23)CC1` [I-126]?
Answer: EC50 [1]: < 10 nM; Emax [1]: 70 to 90%; Emax ([2]; CHO-K1, CHO-K1 cells): > 90%; EC50 ([2]; CHO-K1 cells): < 10 nM

Question: With `CC(C)CNC[C@H](O)c1cc(C#N)cc2[nH]ncc12` [I-160] as the molecule, how does the EC50 [1] read?
Answer: 100 to 1000 nM

Question: And the Emax [1]?
Answer: 70 to 90%

Question: What about the Emax ([2]; CHO-K1, CHO-K1 cells) of the same molecule?
Answer: 70 to 90%

Question: And the EC50 ([2]; CHO-K1 cells)?
Answer: 100 to 1000 nM

Question: Which results are given for `Cc1n[nH]c2cccc([C@@H](O)CNC(C)(C)CO)c12` [I-173]?
Answer: EC50 [1]: 100 to 1000 nM; Emax [1]: 70 to 90%; Emax ([2]; CHO-K1, CHO-K1 cells): 70 to 90%; EC50 ([2]; CHO-K1 cells): 100 to 1000 nM

Question: How did the EC50 [1] turn out when `CCC(CC)NC[C@H](O)c1cccc2[nH]nc(F)c12` [I-42] was run?
Answer: 10 to 100 nM

Question: What about the Emax [1] of the same molecule?
Answer: > 90%

Question: What about the Emax ([2]; CHO-K1, CHO-K1 cells) of the same molecule?
Answer: 70 to 90%

Question: What about the EC50 ([2]; CHO-K1 cells) of the same molecule?
Answer: < 10 nM

Question: With `CCC(CC)NC[C@H](O)c1cc(F)cc2[nH]ncc12` [I-44] as the molecule, how does the EC50 [1] read?
Answer: < 10 nM

Question: And the Emax [1]?
Answer: > 90%

Question: What about the Emax ([2]; CHO-K1, CHO-K1 cells) of the same molecule?
Answer: 70 to 90%

Question: What about the EC50 ([2]; CHO-K1 cells) of the same molecule?
Answer: < 10 nM

Question: Which results are given for `CCC(CC)NC[C@H](O)c1cccc2[nH]ncc12` [I-43]?
Answer: EC50 [1]: 10 to 100 nM; Emax [1]: > 90%; Emax ([2]; CHO-K1, CHO-K1 cells): > 90%; EC50 ([2]; CHO-K1 cells): < 10 nM

Question: `CC(C)(C)NC[C@H](O)c1cccc2[nH]c(=O)[nH]c12` [I-94] was tested. Which EC50 [1] did it give?
Answer: 100 to 1000 nM

Question: What about the Emax [1] of the same molecule?
Answer: 70 to 90%

Question: And the EC50 ([2]; CHO-K1 cells)?
Answer: 100 to 1000 nM

Question: What about the Emax ([2]; CHO-K1 cells) of the same molecule?
Answer: 70 to 90%

Question: What does the source list for `CC(C)(NC[C@H](O)c1ccc(F)c2[nH]ncc12)C1CC1` [I-21]?
Answer: EC50 [1]: < 10 nM; Emax [1]: > 90%; EC50 ([2]; CHO-K1 cells): < 10 nM; Emax ([2]; CHO-K1 cells): > 90%

Question: For `Cc1nc(N)c(F)cc1[C@H](CO)NC(C)(C)C` [I-180], which EC50 [1] is on record?
Answer: > 1000 nM

Question: What about the Emax [1] of the same molecule?
Answer: < 50%

Question: What about the EC50 ([2]; CHO-K1 cells) of the same molecule?
Answer: > 1000 nM

Question: And the Emax ([2]; CHO-K1 cells)?
Answer: < 50%

Question: What does the source list for `CC(C)(C)C(C)(C)NC[C@H](O)c1cc(C#N)cc2[nH]ncc12` [I-4]?
Answer: EC50 [1]: > 1000 nM; Emax [1]: < 50%; Emax ([2]; CHO-K1, CHO-K1 cells): > 90%; EC50 ([2]; CHO-K1 cells): 100 to 1000 nM

Question: What does the source list for `CC(C)(CO)NC[C@H](O)c1cccc2[nH]cc(F)c12` [I-109]?
Answer: EC50 [1]: 10 to 100 nM; Emax [1]: > 90%; EC50 ([2]; CHO-K1 cells): 10 to 100 nM; Emax ([2]; CHO-K1 cells): > 90%

Question: For `CC(C)c1cc([C@@H](O)CNC(C)(C)C)c2cn[nH]c2c1` [I-104], which EC50 [1] is on record?
Answer: > 1000 nM

Question: What about the Emax [1] of the same molecule?
Answer: 70 to 90%

Question: What about the Emax ([2]; CHO-K1, CHO-K1 cells) of the same molecule?
Answer: 70 to 90%

Question: What about the EC50 ([2]; CHO-K1 cells) of the same molecule?
Answer: 100 to 1000 nM
